Measured values published in ChEMBL document CHEMBL5030558, “Optimization and Evaluation of Novel Antifungal Agents for the Treatment of Fungal Infection” (J Med Chem, 2021).
pIC50: −log10 of the molar value. Active and inactive are the calls of the source. No cut-off for these calls is given here.

Assays:
[1] = target: Voltage-gated inwardly rectifying potassium channel KCNH2 (Homo sapiens, UniProt Q12809); assay: Inhibition of human ERG by patch clamp assay
[2] = Stability in rat liver microsomes assessed as parent compound remaining after 30 mins; format: ADME, Microsome; conditions: liver microsomes, read-out: Stability
[3] = system: Aspergillus fumigatus; assay: Synergistic antifungal activity against Aspergillus fumigatus AF293 assessed as FICI in presence of AmB after 48 hrs by checker board assay; format: functional, organism-based
[4] = AUC(0 to t) in cynomolgus monkey at 10 mg/kg, iv; format: ADME, organism-based, Macaca fascicularis; design: dose 10 mg/kg; conditions: in vivo
[5] = system: Aspergillus fumigatus; assay: Synergistic antifungal activity against Aspergillus fumigatus AF293 assessed as FICI in presence of ICZ after 48 hrs by checker board assay; format: functional, organism-based
[6] = system: Candida albicans; assay: In vivo antifungal activity against Candida albicans 90028 infected in BALB/c mouse assessed as appearance of soft epidermal stratum corneum measured upto 48 hrs post infection by histopathological analysis; format: functional, organism-based; conditions: time hrs <=48
[7] = AUC(0 to t) in Sprague-Dawley rat at 10 mg/kg, po; format: ADME, organism-based; design: dose 10 mg/kg; conditions: in vivo
[8] = system: Candida albicans; assay: Induction of morphological changes in Candida albicans ATCC SC5314 assessed as appearance of detached cytoplasm at 32 ug/ml incubated for 24 hrs by TEM analysis; format: functional, organism-based; conditions: dose 32.0 µg/ml
[9] = system: Candida albicans; assay: Synergistic antifungal activity against Candida albicans ATCC SC5314 assessed as FICI in presence of ICZ after 48 hrs by checker board assay; format: functional, organism-based
[10] = Toxicity in Sprague-Dawley rat assessed as death at 500 to 1000 mg/kg, po measured after 14 days; format: organism-based; conditions: in vivo, 336 h, dose 500-1000 mg/kg, time 14 day
[11] = target: Cytochrome P450 2C9 (Homo sapiens, UniProt P11712); assay: Inhibition of CYP2C9 (unknown origin) relative to control; format: ADME
Cytochrome P450 2C9, sequence (P11712 whole entry): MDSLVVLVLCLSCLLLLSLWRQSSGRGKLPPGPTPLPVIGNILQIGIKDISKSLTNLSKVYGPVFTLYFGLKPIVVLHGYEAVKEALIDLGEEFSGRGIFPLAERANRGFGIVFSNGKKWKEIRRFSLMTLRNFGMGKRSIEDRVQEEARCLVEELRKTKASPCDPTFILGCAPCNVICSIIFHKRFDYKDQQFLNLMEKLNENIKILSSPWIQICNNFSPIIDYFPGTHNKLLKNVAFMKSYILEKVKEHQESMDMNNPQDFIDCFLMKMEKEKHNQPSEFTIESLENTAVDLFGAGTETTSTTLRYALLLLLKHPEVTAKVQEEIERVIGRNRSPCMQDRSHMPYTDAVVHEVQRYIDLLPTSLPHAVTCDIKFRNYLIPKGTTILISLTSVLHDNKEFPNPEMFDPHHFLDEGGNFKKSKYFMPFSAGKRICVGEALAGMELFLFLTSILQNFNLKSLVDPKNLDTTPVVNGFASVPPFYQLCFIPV

[12] = system: Nakaseomyces glabratus; assay: Synergistic antifungal activity against Candida glabrata BG2 assessed as FICI in presence of ICZ after 48 hrs by checker board assay; format: functional, organism-based
[13] = system: Trichophyton rubrum; assay: Fungicidal activity against Trichophyton rubrum KCCM60450 at 4 times after 2 hrs by time-kill kinetics assay; format: functional, organism-based
[14] = Stability in dog hepatocytes assessed as parent compound remaining incubated for 60 mins; format: ADME, cell-based, Canis lupus familiaris, Hepatocyte; conditions: read-out: Stability
[15] = Effect on cell wall integrity in Cryptococcus neoformans H99 assessed as increase in HXL1 activation ratio at 4 ug/ml after 2 hrs by immunoblot analysis (reference value: 1); format: functional; conditions: dose 4 µg/ml
[16] = system: [Candida] auris; assay: Synergistic antifungal activity against Candida auris B8841 assessed as FICI in presence of ICZ after 48 hrs by checker board assay; format: functional, organism-based; conditions: Candidozyma auris
[17] = Cmax in Sprague-Dawley rat at 2 mg/kg, iv; format: ADME, organism-based; design: route intravenous, dose 2 mg/kg; conditions: in vivo
[18] = AUC(0 to t) in dog at 1 mg/kg, iv; format: ADME, organism-based, Canis lupus familiaris; design: dose 1 mg/kg; conditions: in vivo
[19] = system: Cryptococcus neoformans; assay: Induction of morphological changes in Cryptococcus neoformans H99 assessed as reduction in cell wall thickness at 4 to 8 ug/ml incubated for 24 hrs by TEM analysis; format: functional, organism-based; conditions: dose 4-8 µg/ml
[20] = Cmax in dog at 1 mg/kg, iv; format: ADME, organism-based, Canis lupus familiaris; design: route intravenous, dose 1 mg/kg; conditions: in vivo
[21] = system: Cryptococcus neoformans; assay: Fungicidal activity against Cryptococcus neoformans H99 at 8 times of MIC after 4 hrs by time-kill kinetics assay; format: functional, organism-based
[22] = system: [Candida] auris; assay: Additive antifungal activity against Candida auris B8841 assessed as assessed as FICI in presence of CSP after 48 hrs by checker board assay; format: functional, organism-based; conditions: Candidozyma auris
[23] = system: Trichophyton mentagrophytes; assay: Fungicidal activity against Trichophyton mentagrophytes KCCM60449 at 4 ug/ml by time-kill kinetics assay; format: functional, organism-based; conditions: dose 4.0 µg/ml
[24] = system: Nakaseomyces glabratus; assay: Induction of drug resistant in Candida glabrata BG2 assessed as increase in compound IC50 at 8 to 12 times MIC; format: functional, organism-based
[25] = system: [Candida] auris; assay: Synergistic antifungal activity against Candida auris B8841 assessed as FICI in presence of AmB after 48 hrs by checker board assay; format: functional, organism-based; conditions: Candidozyma auris
[26] = system: Cryptococcus neoformans; assay: Additive antifungal activity against Cryptococcus neoformans H99 assessed as FICI in presence of FCZ after 48 hrs by checker board assay; format: functional, organism-based
[27] = Stability in human hepatocytes assessed as parent compound remaining incubated for 60 mins; format: ADME, cell-based, Hepatocyte; conditions: read-out: Stability
[28] = target: T1, CYP1A2 (Homo sapiens, UniProt P05177); assay: Inhibition of CYP1A2 (unknown origin) relative to control; format: ADME
T1 sequence (P05177 whole entry): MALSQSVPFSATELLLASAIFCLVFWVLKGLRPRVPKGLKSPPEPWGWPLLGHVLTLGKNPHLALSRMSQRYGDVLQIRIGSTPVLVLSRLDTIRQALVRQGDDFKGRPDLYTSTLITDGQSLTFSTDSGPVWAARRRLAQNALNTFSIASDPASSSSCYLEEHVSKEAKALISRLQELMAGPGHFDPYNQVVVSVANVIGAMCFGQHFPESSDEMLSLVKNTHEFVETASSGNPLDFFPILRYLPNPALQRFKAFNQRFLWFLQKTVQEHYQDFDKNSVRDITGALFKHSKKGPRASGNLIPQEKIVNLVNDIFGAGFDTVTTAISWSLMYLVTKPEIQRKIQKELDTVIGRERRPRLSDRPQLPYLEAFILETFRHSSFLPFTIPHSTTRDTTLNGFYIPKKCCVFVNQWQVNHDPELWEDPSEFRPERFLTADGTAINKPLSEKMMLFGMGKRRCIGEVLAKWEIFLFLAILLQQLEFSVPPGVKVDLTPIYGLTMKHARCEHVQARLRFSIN

[29] = system: Candida albicans; assay: Antifungal activity against Candida albicans ATCC SC5314 assessed as reduction in fungal growth incubated for 48 hrs by CLSI based broth microdilution method; format: functional
[30] = system: Candida albicans; assay: Induction of drug resistant in Candida albicans ATCC SC5314 assessed as increase in compound IC50 at 8 to 12 times MIC; format: functional, organism-based
[31] = Effect on cell wall integrity in Cryptococcus neoformans H99 assessed as increase in HXL1 activation ratio at 8 ug/ml after 2 hrs by immunoblot analysis (reference value: 1); format: functional; conditions: dose 8 µg/ml
[32] = system: Candida albicans; assay: In vivo antifungal activity against Candida albicans 90028 infected in BALB/c mouse assessed as reduction in size of inflammation measured upto 48 hrs post infection; format: functional, organism-based; conditions: time hrs <=48

Voltage-gated inwardly rectifying potassium channel KCNH2, sequence (Q12809 whole entry): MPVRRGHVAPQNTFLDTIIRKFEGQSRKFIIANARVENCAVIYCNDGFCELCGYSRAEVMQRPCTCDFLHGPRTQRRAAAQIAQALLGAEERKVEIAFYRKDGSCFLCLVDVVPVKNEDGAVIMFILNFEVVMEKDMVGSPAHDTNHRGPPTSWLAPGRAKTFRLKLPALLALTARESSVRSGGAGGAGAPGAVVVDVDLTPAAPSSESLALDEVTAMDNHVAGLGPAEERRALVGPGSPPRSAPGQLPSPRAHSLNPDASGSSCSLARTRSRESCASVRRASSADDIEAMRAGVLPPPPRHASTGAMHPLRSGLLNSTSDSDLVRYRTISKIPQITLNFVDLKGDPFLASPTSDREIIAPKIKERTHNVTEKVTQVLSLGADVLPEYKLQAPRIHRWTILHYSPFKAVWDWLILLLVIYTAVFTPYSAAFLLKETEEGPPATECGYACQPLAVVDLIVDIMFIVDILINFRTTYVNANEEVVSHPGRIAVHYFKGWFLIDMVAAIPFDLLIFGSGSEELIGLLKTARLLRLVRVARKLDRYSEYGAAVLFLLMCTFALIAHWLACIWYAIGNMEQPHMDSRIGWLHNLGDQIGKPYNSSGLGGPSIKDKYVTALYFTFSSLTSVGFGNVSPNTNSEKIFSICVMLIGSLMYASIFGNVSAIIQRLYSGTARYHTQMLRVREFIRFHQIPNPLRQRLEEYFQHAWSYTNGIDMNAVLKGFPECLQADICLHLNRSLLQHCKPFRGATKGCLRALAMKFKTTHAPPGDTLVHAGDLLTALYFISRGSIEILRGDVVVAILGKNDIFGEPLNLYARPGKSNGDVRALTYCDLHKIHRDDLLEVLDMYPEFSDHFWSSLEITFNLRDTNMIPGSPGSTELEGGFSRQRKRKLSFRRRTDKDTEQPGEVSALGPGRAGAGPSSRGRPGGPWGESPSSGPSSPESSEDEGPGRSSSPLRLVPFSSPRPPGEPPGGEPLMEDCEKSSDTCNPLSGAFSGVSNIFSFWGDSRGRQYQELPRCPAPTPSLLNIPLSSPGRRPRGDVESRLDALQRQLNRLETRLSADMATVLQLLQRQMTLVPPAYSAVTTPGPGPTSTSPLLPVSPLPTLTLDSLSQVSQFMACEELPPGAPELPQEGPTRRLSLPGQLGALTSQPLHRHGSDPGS

## CCCC(N)C(=O)NCCc1ccc(-c2ccc(Cl)c(Cl)c2)cc1.Cl (racemic)
[1]
  pIC50: 4.40
[2]
  remaining at 0.5 h: 72.3%
[3]
  Activity: Active
[4]
  AUC(0-t): 7150 ng·h/mL
[5]
  Activity: Active
[6]
  Activity: Active
[7]
  AUC(0-t): 527 ng·h/mL
[8]
  Activity: Active
[9]
  Activity: inactive
[10]
  Activity: Non-Toxic
[11]
  inhibition (INH): 77.3%
[12]
  Activity: inactive
[13]
  Activity: Active
[14]
  remaining at 1 h: 61.1%
[15]
  Ratio: 1.12
[16]
  Activity: inactive
[17]
  Cmax: 190 ng/mL
[18]
  AUC(0-t): 2680 ng·h/mL
[19]
  Activity: Active
[20]
  Cmax: 296 ng/mL
[21]
  Activity: Active
[22]
  Activity: Active
[23]
  Activity: Active
[24]
  Activity: inactive
[25]
  Activity: Active
[26]
  Activity: Active
[27]
  remaining at 1 h: 79.1%
[28]
  inhibition at 10 µM: 81.1%
[29]
  MIC: 2 µg/mL
[30]
  Activity: inactive
[31]
  Ratio: 1.57
[32]
  Activity: Active
